The target in test [1] is T1, ETB receptor (ETBR) (Homo sapiens, UniProt P24530).
T1 construct: gene EDNRB
T1 sequence (P24530 27-442): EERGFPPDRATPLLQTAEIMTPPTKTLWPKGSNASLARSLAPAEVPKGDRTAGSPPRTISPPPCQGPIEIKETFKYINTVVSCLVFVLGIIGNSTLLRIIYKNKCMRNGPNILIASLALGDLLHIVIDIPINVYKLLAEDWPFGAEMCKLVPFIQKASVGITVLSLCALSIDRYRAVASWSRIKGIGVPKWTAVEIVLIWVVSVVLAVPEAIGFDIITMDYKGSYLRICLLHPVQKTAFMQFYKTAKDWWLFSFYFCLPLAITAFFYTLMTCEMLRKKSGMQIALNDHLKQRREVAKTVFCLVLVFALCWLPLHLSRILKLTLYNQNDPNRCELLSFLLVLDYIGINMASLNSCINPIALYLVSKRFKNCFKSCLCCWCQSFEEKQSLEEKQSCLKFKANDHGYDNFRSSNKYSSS
Nature of the test: ET-1-induced intracellular calcium mobilization (Fluo-4) in HEK293/ETBR cells, antagonist mode. It is filed as cell-based. On the technique in general: A change in cytosolic calcium serves as a functional read-out for many receptors and channels.

Test [2] deals with T2, ETA receptor (ETAR) (Homo sapiens, UniProt P25101).
T2 construct: gene EDNRA
T2 sequence (P25101 21-427): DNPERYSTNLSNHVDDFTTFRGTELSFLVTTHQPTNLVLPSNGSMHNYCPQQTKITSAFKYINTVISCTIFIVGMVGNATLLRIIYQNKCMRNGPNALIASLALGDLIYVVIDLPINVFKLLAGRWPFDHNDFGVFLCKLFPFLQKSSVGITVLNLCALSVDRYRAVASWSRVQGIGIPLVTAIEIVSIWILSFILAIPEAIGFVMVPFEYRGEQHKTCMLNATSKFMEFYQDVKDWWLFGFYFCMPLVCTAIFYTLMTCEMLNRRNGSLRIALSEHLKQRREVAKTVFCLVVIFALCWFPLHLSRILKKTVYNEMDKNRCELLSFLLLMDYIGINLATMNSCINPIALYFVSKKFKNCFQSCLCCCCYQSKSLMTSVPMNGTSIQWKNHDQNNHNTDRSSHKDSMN
Nature of the test: ET-1-induced intracellular calcium mobilization (Fluo-4) in HEK293/ETAR cells, antagonist mode. It is filed as cell-based.

This passage reports IC50 results from article PMC4813245, “Discovery of Dual ETA/ETB Receptor Antagonists from Traditional Chinese Herbs through in Silico and in Vitro Screening” (International Journal of Molecular Sciences, 2016).

Each structure is given as a SMILES string. Like-named read-outs stand apart in the source and are kept apart here. Non-standard residues stand in square brackets, D forms with d. Residues, ends and D or L forms follow the SMILES beside them.

For `CCCC[C@@H](NC(=O)[C@@H](Cc1cn(C(=O)OC)c2ccccc12)NC(=O)[C@H](CC(C)(C)C)NC(=O)N1[C@H](C)CCC[C@@H]1C)C(=O)O` [BQ-788], in test [1] (read-out: IC50), the IC50 (usually the concentration that gives 50% inhibition) was determined as 5e-05 µM.
For `COc1cccc2c1cc([N+](=O)[O-])c1c(C(=O)O)cc3c(c12)OCO3` [Aristolochic acid A], the 50% inhibitory concentration (IC50) in test [2] was determined as 7.91 µM; in test [1], 7.4 µM.
Turning to `CC(C)C[C@@H]1NC(=O)[C@@H](C(C)C)NC(=O)[C@@H]2CCCN2C(=O)[C@@H](CC(=O)O)NC(=O)[C@@H](Cc2c[nH]c3ccccc23)NC1=O` [BQ-123] (cyclo(L[dW][dD]P[dV])), in test [2], the IC50 worked out at 0.00027 µM.
